Laboratory results reported in US8318749B2, “Quinazoline derivatives as NK3 receptor antagonists” (Hoffmann-La Roche Inc., priority 2008, dated 2012).

How the values were obtained:
[1] = phase II trial, cited from earlier work
[2] = molecular target: T1, recombinant human NK3 receptor (Homo sapiens, UniProt P29371); assay: [3H]SR142801 competition binding assay; settings: membrane from HEK293 cells transiently expressing recombinant human NK3 receptor; radioligand [3H]SR142801; 75 min at RT
T1 construct: expressed in transfected cells; host or cells: HEK293 cells (transient expression), membrane preparation
T1 sequence (P29371 1-465): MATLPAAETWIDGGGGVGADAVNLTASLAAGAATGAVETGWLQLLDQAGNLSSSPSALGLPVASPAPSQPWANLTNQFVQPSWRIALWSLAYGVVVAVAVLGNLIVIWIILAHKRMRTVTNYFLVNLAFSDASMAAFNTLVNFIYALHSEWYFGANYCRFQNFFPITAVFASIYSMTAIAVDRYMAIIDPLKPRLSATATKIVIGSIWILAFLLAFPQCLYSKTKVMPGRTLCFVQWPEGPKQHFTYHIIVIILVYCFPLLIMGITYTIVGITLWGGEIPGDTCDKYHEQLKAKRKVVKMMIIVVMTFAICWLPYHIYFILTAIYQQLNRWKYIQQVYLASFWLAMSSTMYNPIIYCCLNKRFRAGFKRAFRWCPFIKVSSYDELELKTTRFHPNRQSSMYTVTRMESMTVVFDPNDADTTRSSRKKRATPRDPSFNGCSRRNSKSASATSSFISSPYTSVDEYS
Method: [^3H]SR142801 Competition Binding Assay
hNK3 receptor binding experiment were performed using [^3H]SR142801 (Catalog No. TRK1035, specific activity: 74.0 Ci/mmol, Amersham, GE Healthcare UK limited, Buckinghamshire, UK) and membrane isolated from HEK293 cells transiently expressing recombinant human NK3 receptor. After thawing, the membrane homogenates were centrifuged at 48,000×g for 10 min at 4° C., the pellets were resuspended in the 50 mM Tris-HCl, 4 mM MnCl2, 1 μM phosphoramidon, 0.1% BSA binding buffer at pH 7.4 to a final assay concentration of 5 μg protein/well. […] At the end of the incubation, membranes were filtered onto unitfilter (96-well white microplate with bonded GF/C filter preincubated 1 h in 0.3% PEI+0.3% BSA, Packard BioScience, Meriden, Conn.) with a Filtermate 196 harvester (Packard BioScience) and washed 4 times with ice-cold 50 mM Tris-HCl, pH 7.4 buffer. Nonspecific binding was measured in the presence of 10 μM SB222200 for both radioligands. The radioactivity on the filter was counted (5 min) on a Packard Top-count microplate scintillation counter with quenching correction after addition of 45 μl of microscint 40 (Canberra Packard S.A., Zürich, Switzerland) and shaking for 1 h. Inhibition curves were fitted according to the Hill equation: y=100/(1+(x/IC50)^nH), where nH=slope factor using Excel-fit 4 software (Microsoft). IC50 values were derived from the inhibition curve and the affinity constant (Ki) values were calculated using the Cheng-Prussoff equation Ki=IC50/(1+[L]/KD) where [L] is the concentration of radioligand and KD is its dissociation constant at the receptor, derived from the saturation isotherm. All experiments were performed in duplicate and the mean±standard error (SEM) of the individual Ki values was calculated.

| SMILES | Ki [2] | activity on positive symptoms of schizophrenia ([1]; altered behaviour, delusion, hallucinations, extreme emotions, excited motor activity, incoherent speech) | activity in the treatment of negative symptoms ([1]; depression, anhedonia, social isolation or memory and attention deficits) |
| --- | --- | --- | --- |
| CC(=O)N(C)C1(c2ccccc2)CCN(CCC[C@]2(c3ccc(Cl)c(Cl)c3)CCCN(C(=O)c3ccccc3)C2)CC1 [SR 142,801, Osanetant] |  | active | inactive |
| COc1cc2nc(N3CCC(Cc4ccccc4)(C(=O)NC4Cc5ccccc5C4O)CC3)nc(N)c2cc1OC (centres unmarked) [Example 38, 1-(4-Amino-6,7-dimethoxy-quinazolin-2-yl)-4-benzyl-piperidine-4-carboxylic acid (1-hydroxy-indan-2-yl)-amide] | 7.5 nM |  |  |
| COc1cc2nc(N3CCC(Cc4ccccc4)(C(=O)N[C@H]4c5ccccc5C[C@@H]4O)CC3)nc(N)c2cc1OC [Example 39, 1-(4-Amino-6,7-dimethoxy-quinazolin-2-yl)-4-benzyl-piperidine-4-carboxylic acid ((1S,2S)-2-hydroxy-indan-1-yl)-amide] | 3.6 nM |  |  |
| COc1cc2nc(N3CCC(Cc4ccccc4)(C(=O)NCc4ccc(Cl)c(Cl)c4)CC3)nc(N)c2cc1OC [Example 28, 1-(4-Amino-6,7-dimethoxy-quinazolin-2-yl)-4-benzyl-piperidine-4-carboxylic acid 3,4-dichloro-benzylamide] | 52.4 nM |  |  |
| COc1cc2nc(N3CCC(Cc4ccc(F)cc4)(C(=O)NCc4ccccc4)CC3)nc(N)c2cc1OC [Example 4, 1-(4-Amino-6,7-dimethoxy-quinazolin-2-yl)-4-(4-fluoro-benzyl)-piperidine-4-carboxylic acid benzylamide] | 37.3 nM |  |  |
| COc1cc2nc(N3CCC(Cc4ccccc4)(C(=O)NCc4ccccc4)CC3)nc(O)c2cc1OC [Example 17, 4-Benzyl-1-(4-hydroxy-6,7-dimethoxy-quinazolin-2-yl)-piperdine-4-carboxylic acid benzylamide] | 3.6 nM |  |  |
| COc1cc2nc(N3CCC(Cc4ccccc4)(C(=O)NCc4ccccc4)CC3)nc(N)c2cc1OC [Example 10, l-(4-Amino-6,7-dimethoxy-quinazolin-2-yl)-4-benzyl-piperidine-4-carboxylic acid benzylamide] | 18.3 nM |  |  |

More lines, main results first:

| Ki [2] | SMILES | activity on positive symptoms of schizophrenia ([1]; altered behaviour, delusion, hallucinations, extreme emotions, excited motor activity, incoherent speech) | activity in the treatment of negative symptoms ([1]; depression, anhedonia, social isolation or memory and attention deficits) |
| --- | --- | --- | --- |
| 20.6 nM | COc1cc2nc(N3CCC(Cc4ccccc4)(C(=O)N[C@H](C)c4ccccc4)CC3)nc(N)c2cc1OC [Example 49, 1-(4-Amino-6,7-dimethoxy-quinazolin-2-yl)-4-benzyl-piperidine-4-carboxylic acid ((R)-1-phenyl-ethyl)-amide] |  |  |
| 15.8 nM | COc1cc2nc(N3CCC(Cc4ccccc4)(C(=O)NCc4ccccc4)CC3)nc(O)c2cc1C#N [Example 97, 4-Benzyl-1-(6-cyano-4-hydroxy-7-methoxy-quinazolin-2-yl)-piperidine-4-carboxylic acid benzylamide] |  |  |
| 21.5 nM | COc1cc2c(O)nc(N3CCC(Cc4ccccc4)(C(=O)NCc4ccccc4)CC3)nc2cc1OC(C)C [Example 92, 4-Benyzl-1-(4-hydroxy-7-isopropoxy-6-methoxy-quinazolin-2-yl)-piperidine-4-carboxylic acid benzylamide] |  |  |
| 36.2 nM | COc1cc2nc(N3CCC(CC4CCC4)(C(=O)NC4CCc5ccccc5C4)CC3)nc(O)c2cc1OC (centres unmarked) [Example 77, 4-Cylcobutylmethyl-1-(4-hydroxy-6,7-dimethoxy-quinazolin-2-yl)-piperidine-4-carboxylic acid (1,2,3,4-tetrahydro-naphthalen-2-yl)-amide] |  |  |
| 83.9 nM | COc1cc2nc(N3CCC(Cc4ccccc4)(C(=O)NC4CCc5ccccc5C4O)CC3)nc(O)c2cc1OC (centres unmarked) [Example 68, 4-Benzyl-1-(4-hydroxy-6,7-dimethoxy-quinazolin-2-yl)-piperidine-4-carboxylic acid (1-hydroxy-1,2,3,4-tetrahydro-naphthalen-2-yl)-amide] |  |  |
| 5.4 nM | COc1cc2nc(N3CCC(Cc4ccccc4)(C(=O)NC4CCc5ccccc54)CC3)nc(N)c2cc1OC (centres unmarked) [Example 44, 1-(4-Amino-6,7-dimethoxy-quinazolin-2-yl)-4-benzyl-piperidine-4-carboxylic acid indan-1-ylamide] |  |  |
